# “Also recorded” adds a separate entry of the source.
# What was measured:
# K. pneumoniae SCH530 = assay: checkerboard assay, MIC and FICI; settings: for MIC Alone: 18 hours
# Experimental: (§1) It was determined that when the FICI value was 0.5 or less, the effect was synergistic, when the value was 0.5 to 4.0, the effect was indifferent, and when the value was 4 or more, the effect was antagonistic.
# (§2) First, in each LB agar plate in which bacteria (Klebsiella pneumonia SCH530, SCH740, SCH777, Pseudomonas aeruginosa SMC-U9, SMC-U10, SMC-U11) were grown, 3 to 4 colonies were inoculated into 4 to 5 ml of a LB broth and incubated overnight at 220 rpm at 37° C. for 16 hours. The next day, 5 ml of a culture medium diluted to 1/10000 was incubated to OD=0.08-0.1 in a 15 ml round culture tube at 220 rpm at a temperature of 37° C., and was diluted to 1/20 and dispensed at 196 ul in a 96-well plate. PA108 and PMB were dispensed at concentrations of 0 to 80 μM and 0 to 128 μg/Ml, respectively at 2 ul each and mixed in each well, and incubated at 37° C. for 18 hours to measure the OD value using a multifunctional microplate reader.
# P. aeruginosa SMC-U9 = assay: checkerboard assay, MIC and FICI; settings: for MIC Alone: 18 hours
# Experimental: as §1, §2
# [1] = system: A. baumannii colistin R357; assay: checkerboard assay, MIC and FICI; settings: for MIC Alone: 18 hours
# Experimental: First, in a LB agar plate, 3-4 colonies were inoculated into a 4-5 ml of a LB broth and incubated overnight at 37° C. and 220 rpm for 16 hours. Thereafter, 5 ml of a 1/10000 dilution of the culture medium was made and incubated to OD=0.08-0.1 at 37° C. and 220 rpm in a 15 ml round culture tube.
# as §1
# [2] = system: Acinetobacter baumannii strains; assay: transcriptome analysis (RNA sequencing, DEG, gene ontology); settings: 1 hour
# Experimental: First, in a LB agar plate, a single colony was inoculated into a 3 ml of a LB broth and incubated overnight under the conditions of 37° C. and 220 rpm for 16 hours. Thereafter, 1% of the culture medium was diluted in a 250 mL Erlenmeyer flask and then incubated to OD=0.5. The culture medium was dispensed at 5 ml each into three 15 ml round culture tubes, treated with PMB at a concentration of 16 μg/ml, PA108 at a concentration of 5 μm, and PMB at a concentration of 16 μg/ml and PA108 at a concentration of 5 μm, respectively, and incubated at 37° C. and 220 rpm for 1 hour. Thereafter, bacteria were washed three times with PBS, centrifuged at 4° C. and 8,000×g for 10 minutes, and stored at −80° C.
# The library for performing RNA sequencing was prepared by extracting total RNA with a TruSeq Stranded Total RNA sample preparation kit including Ribo-Zero H/M/R, and synthesizing 150 bp-sized cDNA. The quality of the synthesized cDNA library was evaluated by Agilent 2100 BioAnalyzer (Agilent, CA, USA), and after amplifying the cluster of a denatured template, paired-end sequencing which sequences both ends of a DNA fragment using Illumina Novaseq 6000 (Illumina, CA, USA) was performed. For transcriptomic data analysis, the read value was filtered, and the filtered read value was mapped to a reference genome using an aligner STAR v.2.4.0b. Thereafter, in order to measure a gene expression amount, gene expression was quantified using a KAPA library quantification kit (Kapa Biosystems, MA, USA) according to the library quantification protocol of the manufacturer.
# In order to identify a differential expression gene (DEG), a gene expression level was measured with Cufflinks v2.1.1 using gene annotation database, and gene expression level count data was produced using HTSeq-count v0.6.1p1. Form the produced data, a TCC R package was used to identify a gene having a q value of less than 0.05 as a differential expression gene.
# For the genes identified as the differential expression gene (DEG), gene ontology (GO) analysis in which genes were classified according to three categories of biological process, molecular function, and cellular component, and information about the function of genes is provided was performed.
# [3] = system: Acinetobacter baumannii strains (R357); assay: bacterial morphological change (fluorescence microscope, scanning electron microscope); settings: 9 hours
# Experimental: First, in a LB agar plate, a single colony was inoculated into 3 ml of a LB broth and incubated overnight at 37° C. and 220 rpm for 16 hours. Thereafter, 1% of the culture medium was diluted in a 250 ml of Erlenmeyer flask and incubated to OD=0.5, treated with PMB and PA108 at concentrations of 16 μg/ml and 5 μM, respectively, and incubated for 9 hours. The cells were centrifuged at 4° C. for 10 minutes at 8,000×g, washed three times, and resuspended in PBS. 3 ml of the cell suspension was fixed and then observed with a scanning electron microscope. A LIVE/DEAD BacLight bacterial viability kit (Cat #. L7007, Invitrogen, Waltham, Massachusetts, USA) was used to add SYTO9 (67 mM, 3 μL) which bound to DNA and RNA of living cells to emit green fluorescence and Propidium iodide (PI) (1.67 mM, 3 μL) which bound to DNA and RNA of dead cells to emit red fluorescence to add each sample at a final volume of 3 ml, and the samples were incubated in a dark room at room temperature for 15 hours and observed with a fluorescence microscope.
# [4] = system: human body-derived renal cells ACHN; assay: nephrotoxicity, renal cell viability (cell titer glo); format: cell-based
# Experimental: First, ACHN renal cells were incubated with 2×10^4 cells/well for 24 hours, and the medium was changed to a medium in which PMB or PA108 was mixed in all wells. After 0, 24, 48, 72, and 96 hours of the treatment with PMB or PA108, cell viability was measured as ratios of the amounts of ATP at each time to 0 hour through cell titer glo to evaluate cytotoxicity.
# P. aeruginosa SMC-U11 = assay: checkerboard assay, MIC and FICI; settings: for MIC Alone: 18 hours
# Experimental: as §1, §2
# K. pneumoniae SCH740 = assay: checkerboard assay, MIC and FICI; settings: for MIC Alone: 18 hours
# Experimental: as §1, §2
# P. aeruginosa SMC-U10 = assay: checkerboard assay, MIC and FICI; settings: for MIC Alone: 18 hours
# Experimental: as §1, §2
# R357 strains [5] = assay: bacterial viability test (colony forming unit)
# Experimental: First, in a LB agar plate, a single colony was inoculated into a 3 ml of a LB broth and incubated overnight under the conditions of 37° C. and 220 rpm for 16 hours. Thereafter, 1% of the culture medium was diluted in a 250 ml Erlenmeyer flask and then incubated to OD=0.5.
# K. pneumoniae SCH777 = assay: checkerboard assay, MIC and FICI; settings: for MIC Alone: 18 hours
# Experimental: as §1, §2
# [6] = system: Acinetobacter baumannii strains; assay: cytoplasmic membrane potential (DiSC3(5) fluorescence); format: cell-based; settings: PMB and PA108 in combination
# Experimental: The cell membrane potential was resuspended in 5 mM HEPES (pH 7.0, +5 mM of glucose), DiSC3(5) (3,3′-Dipropylthiadicarbocyanine Iodide) (50 μM, Cat. D306, Invitrogen, Carlsbad, California) which is a pigment sensitive to potential was added, incubation was performed for 30 minutes, and then fluorescence was measured by a multifunctional microplate reader to measure membrane potential.
# R357 strains [7] = assay: mouse sepsis model caused by R357 infection, survival rate; format: in vivo; settings: PMB 100 μg/kg + PA108 60 μg/kg intraperitoneally
# Experimental: Specifically, 5×10^7 of R357 strains were intraperitoneally injected into 6 week old C57BL/6 mouses to prepare a sepsis mouse model caused by R357 infection, and PMB at a dose of 100 μg/kg and PA108 at a dose of 60 μg/kg were intraperitoneally injected alone or in combination to measure the survival rate of the mouse.
# [8] = system: Acinetobacter baumannii strains; assay: membrane permeability (PI fluorescence); format: cell-based; settings: PMB 16 μg/ml + PA108 5 μM; 30 minutes
# Experimental: Specifically, for sample preparation, a colony culture grown for 16 hours was washed and resuspended in 0.01 M PBS at pH 7.4. Absorbance at 600 nm in a bacteria suspension was standardized to 0.5 in the same buffer solution, and a pigment PI9 (cat. P1304MP, Thermo Fisher Scientific, Waltham, Massachusetts, USA) was added at a final concentration of 1.67 μM. After incubation at 37° C. for 30 minutes, 198 μl of fluorescently labeled bacteria cells were added to a 96-well plate, and 16 μg/ml of PMB and 2 μl of 5 μM PA108 were added. After incubation for 30 minutes again, fluorescence was measured in a fluorescence measurement wavelength range of excitation of 535 nm and emission of 615 nm by a multifunctional microplate reader to measure membrane permeability.
# [9] = in combination with polymyxin B
# [10] = A. baumannii colistin R357, PA108 + polymyxin B
# [11] = PMB 16 μg/ml + PA108 5 μM, gene ontology analysis
compound,measurement,setting,value
"polymyxin B [PMB, reference compound]",FIC,K. pneumoniae SCH530,0.0623
same,MIC Alone,K. pneumoniae SCH530,8 µg/mL
same,MIC Combi,K. pneumoniae SCH530; in combination with PA108,0.5 µg/mL
same,FIC,P. aeruginosa SMC-U9,0.25
same,MIC Alone,P. aeruginosa SMC-U9,16 µg/mL
same,MIC Combi,P. aeruginosa SMC-U9; in combination with PA108,4 µg/mL
same,FIC,[1]; A. baumannii colistin R357,0.031
same,MIC Alone,[1]; A. baumannii colistin R357,54 µg/mL
same,MIC Combi,"[1]; A. baumannii colistin R357, in combination with PA108",2 µg/mL
same,minimal inhibitory concentration (MIC),"[1]; R357 strains, polymyxin alone",64 µg/mL
same,"gene change compared with control group, PMB single treatment",[2]; PMB 16 μg/ml,significant gene change was observed
same,"cell death by LIVE/DEAD fluorescence, PMB single treatment",[3]; PMB 16 μg/ml,the cells did not die
same,"cell morphology by scanning electron microscope, PMB single treatment",[3]; PMB 16 μg/ml,intact form in which the surface of cells was not damaged
same,concentration from which viability of renal cells decreased,[4]; up to 96 hours,≥ 50 µg/mL
same,FIC,P. aeruginosa SMC-U11,0.0625
same,MIC Alone,P. aeruginosa SMC-U11,32 µg/mL
same,MIC Combi,P. aeruginosa SMC-U11; in combination with PA108,2 µg/mL
same,FIC,K. pneumoniae SCH740,0.00781
same,MIC Alone,K. pneumoniae SCH740,128 µg/mL
same,MIC Combi,K. pneumoniae SCH740; in combination with PA108,1 µg/mL
same,FIC,P. aeruginosa SMC-U10,0.125
same,MIC Alone,P. aeruginosa SMC-U10,16 µg/mL
same,MIC Combi,P. aeruginosa SMC-U10; in combination with PA108,2 µg/mL
same,"effect of killing (CFU), PMB single treatment",R357 strains [5]; PMB 16 μg/mL,did not show the effect of killing
same,FIC,K. pneumoniae SCH777,0.00391
same,MIC Alone,K. pneumoniae SCH777,128 µg/mL
same,MIC Combi,K. pneumoniae SCH777; in combination with PA108,0.5 µg/mL
Cc1cc([N+](=O)[O-])cc(-c2ccc(Cl)cc2)c1O [PA108],FIC,K. pneumoniae SCH530,0.03125
same,MIC Alone,K. pneumoniae SCH530,160 µM
same,Interpretation,K. pneumoniae SCH530; PA108 + polymyxin B,Synergy
same,MIC Combi,K. pneumoniae SCH530; [9],5 µM
same,bacterial cytoplasmic membrane potential,[6],changed the bacterial cytoplasmic membrane potential
same,FIC,P. aeruginosa SMC-U9,0.0625
same,MIC Alone,P. aeruginosa SMC-U9,160 µM
same,Interpretation,P. aeruginosa SMC-U9; PA108 + polymyxin B,Synergy
same,MIC Combi,P. aeruginosa SMC-U9; [9],10 µM
same,FIC,[1]; A. baumannii colistin R357,0.03125
same,MIC Alone,[1]; A. baumannii colistin R357,160 µM
same,FICI,[1]; [10],0.06225
same,Interpretation,[1]; [10],synergistic effect; also recorded: Synergy
same,MIC Combi,"[1]; A. baumannii colistin R357, in combination with PB",5 µM
same,"survival time, simultaneous treatment","R357 strains [7]; C57BL/6 mouse, R357 i.p.",≥ 168 h
same,"R357 strains in organs at autopsy, simultaneous treatment",R357 strains [7],R357 strains were not detected in organs
same,"pathological symptoms, simultaneous treatment",R357 strains [7]; until 168 hours,without showing any pathological symptoms
same,"gene change compared with control group, PA108 single treatment",[2]; PA108 5 μM,significant gene change was observed
same,"gene change compared with control group, simultaneous treatment",[2]; PMB 16 μg/ml + PA108 5 μM,significant gene change was observed
same,"expression of genes involved in transport of substances through a cell membrane, ATPase-coupled sulfate transmembrane transporter activity",[2]; [11],significantly increased
same,"expression of genes involved in zinc ion binding, identical protein binding, ferric ion binding and peroxidase activity",[2]; [11],significantly decreased
same,"cell death by LIVE/DEAD fluorescence, PA108 single treatment",[3]; PA108 5 μM,the cells did not die
same,"cell morphology by scanning electron microscope, PA108 single treatment",[3]; PA108 5 μM,intact form in which the surface of cells was not damaged
same,"cell death by LIVE/DEAD fluorescence, simultaneous treatment",[3]; PMB 16 μg/ml + PA108 5 μM,cell death was derived
same,"cell morphology by scanning electron microscope, simultaneous treatment",[3]; PMB 16 μg/ml + PA108 5 μM,cells shrunk and an intracellular substance was leaked
same,nephrotoxicity at working concentration,[4]; 5 μM,nephrotoxicity was not shown at all
same,renal cell viability,[4]; concentration higher than 5 μM,≥ 80%
same,FIC,P. aeruginosa SMC-U11,0.0625
same,MIC Alone,P. aeruginosa SMC-U11,160 µM
same,Interpretation,P. aeruginosa SMC-U11; PA108 + polymyxin B,Synergy
same,MIC Combi,P. aeruginosa SMC-U11; [9],10 µM
same,FIC,K. pneumoniae SCH740,0.03125
same,MIC Alone,K. pneumoniae SCH740,160 µM
same,Interpretation,K. pneumoniae SCH740; PA108 + polymyxin B,Synergy
same,MIC Combi,K. pneumoniae SCH740; [9],5 µM
same,FIC,P. aeruginosa SMC-U10,0.0625
same,MIC Alone,P. aeruginosa SMC-U10,160 µM
same,Interpretation,P. aeruginosa SMC-U10; PA108 + polymyxin B,Synergy
same,MIC Combi,P. aeruginosa SMC-U10; [9],10 µM
same,overall membrane permeability,[8],did not affect the overall membrane permeability
same,"effect of killing (CFU), PA108 single treatment",R357 strains [5]; PA108 5 μM,did not show the effect of killing
same,"cell death (CFU), simultaneous treatment",R357 strains [5]; PMB 16 μg/mL + PA108 5 μM,cell death was derived
same,bacterial killing effect,"R357 strains [5]; PMB 16 μg/mL + PA108 5 μM, final",100%
same,FIC,K. pneumoniae SCH777,0.03125
same,MIC Alone,K. pneumoniae SCH777,160 µM
same,Interpretation,K. pneumoniae SCH777; PA108 + polymyxin B,Synergy
same,MIC Combi,K. pneumoniae SCH777; [9],5 µM

# Reference: patent US12599575B2, “Antimicrobial adjuvant containing biphenyl derivative compound as active ingredient, and uses thereof” (KOREA RESEARCH INSTITUTE OF BIOSCIENCE AND BIOTECHNOLOGY, priority 2021, dated 2026)
